pEC50, pIC50: −log10 of the molar value. Like-named read-outs stand apart in the source and are kept apart here.
Columns and labels:
[1] = system: H9C2 cells; experiment: Toxicity on normal H9C2 cells (MTT assay); type: cell-based; conditions: for viability at 100 µM: read-out: Survival Rate (%)
[2] = system: injured SH-SY5Y cells; experiment: Protective effect against tert-butyl hydroperoxide-induced SH-SY5Y neurotoxicity cells (MTT assay); type: cell-based; conditions: for viability at 3.125 µM / viability at 6.25 µM / viability at 12.5 µM / viability at 25 µM / viability at 50 µM / Proliferation Rate (%): injured SH-SY5Y cells; for viability at 3.125 µM / viability at 6.25 µM / viability at 12.5 µM / viability at 25 µM / viability at 50 µM: read-out: Proliferation Rate (%); for pEC50: tert-butyl hydroperoxide-induced SH-SY5Y neurotoxicity, read-out: EC50 for protecting injured SH-SY5Y cells;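 on Proliferation Rate (%): 0% equals CoCl2-injured cells and 100% equals NGF-treated cells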
Description: The protective effects of baicalein derivatives in vitro was evaluated against tert-butyl, hydroperoxide-induced, SH-SY5Y neurotoxicity cells using an MTT assay. In addition, their toxicity evaluation was tested on normal H9C2 cells. The resulting proliferation rates (%) at different concentrations, as well as their 50% effective concentrations (EC50) for protecting damaged SH-SY5Y cells of the baicalein amino acid derivatives, are summarized in Table 2.
(§1) The SH-SY5Y ([…]) and H9C2 ([…]) cell lines were obtained from the Chinese Academy of Medical Sciences and Peking Union Medical College. All of the cell lines were grown in dulbecco’s modified eagle medium (DMEM) with 10% (v/v) fetal bovine serum (FBS) and 1% (v/v) penicillin/streptomycin (Thermo Technologies, New York, NY, USA), under a humidified atmosphere containing 5% CO2 at 37 °C. The baicalein derivatives were dissolved in DMSO (Sigma, St. Louis, MO, USA) and added at various concentrations to the cell culture.
(§2) The protective effect of these compounds was evaluated on SH-SY5Y and H9C2 cell lines via the MTT method. The cells growing in the logarithmic phase were cultured in 96-well plates at a density 3 × 10^3 cells/well and incubated for 24 h. Then each well was treated with the required concentrations (50 µM concentrations, 25 µM concentrations, 12.5µM concentrations, 6.25 µM concentrations, and 3.125 µM concentrations) of baicalein derivatives, and incubated 36 h at 37 °C with 5% CO2. After that, the cells were induced by H2O2 (final concentration, […]) for 12 h. Control-differentiated cells were injected with new growth media at equal amounts. Before […] MTT solution (5 mg/mL) was added to each well, the cell culture fluid was discarded, and […] fresh cell culture fluid was added. The plate was incubated for a further 4 h at 37 °C. The cell supernatant medium was removed carefully, without disturbing the attached cells, and formazan crystals were solubilized by adding 150 μL DMSO into each well. The absorbance was measured at 490 nm with a plate reader (BIORAD 550 spectrophotometer, Bio-rad Life Science Development Ltd., Beijing, China). H2O2 was dissolved in DMEM medium. Wells without drugs were used as blanks. The EC50 values were defined as the concentrations that causes the maximum effect of 50%; IC50 values were defined as the concentration of compound which gives 50% growth inhibition, and were calculated using the GraphPad Prism 5. The proliferation rates of damaged SH-SY5Y cells were calculated in the following formula (1): [OD490 (compound) − OD490 (CoCl2)]/[OD490 (NGF) − OD490 (CoCl2)] × 100%(1) The EC50 values were using the equation −pEC50 = log Cmax − log 2 × (ΣP − 0.75 + 0.25Pmax + 0.25Pmin)(2) where Cmax is the maximum concentration, ΣP is the sum of proliferation rates, Pmax is the maximum value of the proliferation rate, and Pmin is the minimum value of the proliferation rate. Cell viability was expressed as a percentage of the control.

[3] = system: H9C2 cells; experiment: Toxicity on normal H9C2 cells (MTT assay); type: cell-based; conditions: MTT; for viability at 6.25 µM / viability at 12.5 µM / viability at 25 µM / viability at 50 µM / Survival Rate (%): H9C2 cells; for viability at 6.25 µM / viability at 12.5 µM / viability at 25 µM / viability at 50 µM: read-out: Survival Rate (%); for pIC50: normal H9C2 cells
Description: To study cytotoxicity on normal cells, the cytotoxicity of compounds against normal H9C2 cells were tested.
as §1, §2
The inhibition rate was calculated in the following equation: % inhibition = 1 − (Sample group OD/Control group OD) × 100%(3)

Compound	melting point [°C]	viability at 100 µM [1] [%]	viability at 3.125 µM ([2]; Homo sapiens, 3.125 µM) [%]	viability at 6.25 µM ([2]; Homo sapiens, 6.25 µM) [%]	viability at 12.5 µM ([2]; Homo sapiens, 12.5 µM) [%]	viability at 25 µM ([2]; Homo sapiens, 25 µM) [%]	viability at 50 µM ([2]; Homo sapiens, 50 µM) [%]	pEC50 ([2]; Homo sapiens)	viability at 6.25 µM ([3]; 6.25 µM) [%]	viability at 12.5 µM ([3]; 12.5 µM) [%]	viability at 25 µM ([3]; 25 µM) [%]	viability at 50 µM ([3]; 50 µM) [%]	pIC50 [3]	further results
CC(NC(=O)OC(C)(C)C)C(=O)Oc1c(O)cc2oc(-c3ccccc3)cc(=O)c2c1O (stereo not drawn) [Compound 14, 5,7-dihydroxy-4-oxo-2-phenyl-4H-chromen-6-yl 2-{[(tert-butoxy)carbonyl]amino} propanoate]	196.7	97.1	0.35	3.34	7.09	4.09	0.1	4.13	185	166	137	129	< 4.00	–
1-tert-butyl 2-(5,7-dihydroxy-4-oxo-2-phenyl-chroman-6-yl) pyrrolidine-1,2-dicarboxylate [Compound 11]	–	–	–	–	–	–	–	–	–	–	–	–	4.02	Survival Rate (%) ([1]; 100 µM): 45.75%; Proliferation Rate (%) ([2]; 3.125 µM): 47.94%; Proliferation Rate (%) ([2]; 6.25 µM): 86.25%; Proliferation Rate (%) ([2]; 12.5 µM): 78.16%; Proliferation Rate (%) ([2]; 25 µM): 74.48%; Proliferation Rate (%) ([2]; 50 µM): 64.80%; pEC50 [2]: 5.24; Survival Rate (%) ([3]; 6.25 µM): 70.98%; Survival Rate (%) ([3]; 12.5 µM): 67.32%; Survival Rate (%) ([3]; 25 µM): 61.98%; Survival Rate (%) ([3]; 50 µM): 60.67%
CN(CC(=O)Oc1cc2oc(-c3ccccc3)cc(=O)c2c(O)c1OC(=O)CN(C)C(=O)OC(C)(C)C)C(=O)OC(C)(C)C [Compound 13, 7-[(2-{[(tert-butoxy)carbonyl](methyl)amino}acetyl)oxy]-5-hydroxy-4-oxo-2-phenyl-4H-chromen-6-yl 2-{[(tert-butoxy)carbonyl](methyl)amino}acetate]	205.1	123	40.1	92.1	91.5	73	65.9	5.27	215	166	152	132	< 4.00	–
CN(CC(=O)Oc1cc2oc(-c3ccccc3)cc(=O)c2c(O)c1O)C(=O)OC(C)(C)C [Compound 5, 5,6-dihydroxy-4-oxo-2-phenyl-4H-chromen-7-yl 2{[(tert-butoxy)carbonyl](methyl)amino}acetate]	218	76.9	28.4	37.6	76.4	78.1	60.7	5.00	116	116	105	95.1	< 4.00	–
CC1=NN(c2ccccc2)C(=O)C1 [Edaravone, reference compound]	–	–	61.4	85.8	76.1	69.9	60.7	5.25	–	–	–	–	–	–
CC(C)(C)OC(=O)NC(Cc1ccccc1)C(=O)Oc1c(O)cc2oc(-c3ccccc3)cc(=O)c2c1O (stereo not drawn) [Compound 6, 5,7-dihydroxy-4-oxo-2-phenyl-4H-chromen-6-yl 2-{[(tert-butoxy)carbonyl]amino}-3-phenylpropanoate]	–	122	8.61	20	24.8	21.6	16.7	4.38	157	154	154	137	< 4.00	–

Reference: article PMC6832219, “Synthesis of Novel Baicalein Amino Acid Derivatives and Biological Evaluation as Neuroprotective Agents” (Molecules, 2019)
